Results: patent US20220160779A1, “COMPOSITION FOR PROMOTING CARTILAGE TISSUE REGENERATION” (National University Corporation Tokyo Medical and Dental …, priority 2019, published 2022)

Assays:
Wistar rats = test: MIA-induced arthritis rat model, incapacitance test; format: in vivo; conditions: intra-articular at day 14 after MIA (400 ng/30 uL in PBS), vs control group; FIG. 9B
Procedure: Wistar rats (Charles River, Japan) aged 10 weeks and weighing 330 to 345 g were used for this study. The rats were divided into two groups (those to be injected with Activin A after injection of mono-iodoacetic acid (MIA), and those to be injected with vehicle after injection of MIA (control)), and subjected to the following experiments.
First, the rats were anesthetized by isoflurane inhalation, and 30 μL of physiological saline containing 1.0 mg MIA was injected into the left knee joint as described in Hoshino T. et al, BMC Musculoskelet Disord., 2018, 19(1): 291. Then, at day 14 after MIA injection, 30 μL of recombinant human Activin A (400 ng/30 μL in PBS) or PBS only as a vehicle was injected. Then, pain avoidance behavior (load asymmetry) between the left limb (MIA-injected side) and the right limb (MIA-uninjected side) was evaluated at day 0 (before injection) and days 1, 3, 7, 14, 17, 19, 21, 24, and 28 after injection.
Load asymmetry was detected by using an incapacitance tester (Linton Instrumentation, Norfolk, UK) with rats in its prismatic Plexiglas case, and the left and right hindlimbs placed on independent force plates. […]
Then, the change from the difference in the percentage of load before administration was then evaluated over time. […]

[1] = test system: MSCs positive for CD73, CD90, CD105, CD44; test: Expression analysis of MSC surface antigens (flow cytometry); format: cell-based, human; conditions: cultured 2 weeks in the presence of rh Activin A; FIG. 6A
Procedure: Cells were isolated by treatment with TrypLE (Thermo Fisher Scientific, MA, USA) for 5 minutes and stained with antibodies as described in Tsuji K. et al, Cell Transplant. 2017, 26(6), pp. 1089 to 1102. The surface antigen positive cell fraction was then measured using FACS Verse Flow Cytometer (BD Biosciences). Note that fluorochrome-conjugated antibodies for the analysis of cell surface markers (CD73, CD90, CD105, and CD44) were purchased from BD Biosciences (NJ).
To evaluate the effect of activin on the stemness of MSCs, they were cultured for 2 weeks in the presence of rh Activin A, and changes in the expression level of MSC surface antigens were examined by flow cytometric analysis.

proteoglycans = conditions: cited from earlier work
C57BL/6J mice = test: Medial meniscus anterior 1/2 resection model; format: in vivo, mouse
Description: Twenty male C57BL/6J mice (8 weeks old, weight: about 25 g) were used for this study (5 mice in each group. ORIENTAL YEAST Co., Ltd. Tokyo, Japan). After anesthesia by isoflurane inhalation, a straight incision was made in the left anterior knee, and the anterior central side of the joint capsule was cut. The patellar tendon was then dislocated laterally to expose the anterior corner of the medial meniscus (see Hiyama K. et al, J Orthop Res., 2017, 35(9), pp. 1958 to 1965). The anterior corner of the meniscus was cut and dislocated anteriorly using forceps. The medial meniscus was cut perpendicularly at the medial collateral ligament, and the anterior portion of the medial meniscus was resected in a microscopic operation using a surgical microscope. The skin was closed in layers with non-absorbable sutures. Note that the right knee was subjected to sham surgery. In addition, the mice were kept under a 12-hour light/dark cycle with free movement, free feeding, and drinking water.
Recombinant human Activin A (42 ng/6 μL in PBS) and/or rh PDGF-AA (174 ng/6 μL in PBS) was injected intra-articularly on postoperative day 7 (see Hoshino T. et al., BMC Musculoskelet Disord., 2018, 19(1): 291). […]
Tissue samples were fixed in 4% paraformaldehyde for 3 to 4 days and subjected to decalcification in 20% ethylenediaminetetraacetic acid (EDTA) solution for 21 days. Then, they were embedded in paraffin wax. The specimens were then cut to a 5 μm thickness in the sagittal plane and stained with safranin O/Fast Green or hematoxylin/eosin (H&E) to histologically evaluate meniscus regeneration.
A modified Pauli's score system was used to histologically quantify meniscus regeneration (see Hiyama K. et al, J Orthop Res. 2017, 35(9), pp. 1958 to 1965). Histological evaluation was performed by two investigators in a blind manner.
Type I and II collagen immunostaining was performed as described in Tsuji K. et al, Cell Transplant., 2017, 26(6), pp. 1089 to 1102. That is, sections were subjected to deparaffinization with xylene (Wako Pure Chemical Industries, Tokyo, Japan), rehydrated stepwise with alcohol, and saturated with phosphate buffered saline (PBS). For type II collagen staining, the samples were pretreated with 50 mM Tris-HCl buffer (Wako Pure Chemical Industries) containing 0.4 mg/ml Proteinase K (Dako, Agilent Technologies, Santa Clara, Calif., USA) for 10 min. For type I collagen staining, no digestion with Proteinase K was performed.
Next, the cells were treated with methanol containing 0.3% hydrogen peroxide for 30 minutes to suppress the activity of endogenous peroxidase. As primary antibodies, anti-type I collagen antibody (1:200 dilution; Abcam cat. #ab34712, Cambridge, UK) or anti-type II collagen antibody (1:1000 dilution; Abcam […], Cambridge, UK) were added to the sections and incubated at 4° C. overnight. Then, the sections were rinsed with 0.1% PBS-Triton X-100 (MP Biomedicals Inc., Solon, Ohio, USA) and incubated with secondary antibodies diluted 1:200 [Biotinylated goat-derived anti-rabbit immunoglobulin G (IgG), Vector Laboratories, Burlingame, Calif., USA]. Then, the sections were rinsed, the signals were visualized with Vectastain ABC Reagent (Vector Laboratories), and diaminobenzidine staining (DAB, Vector Laboratories) was applied. In addition, the sections were contrast stained with hematoxylin (Muto Pure Chemicals, Tokyo, Japan).

Substance: Activin A: homodimer of two inhibin βA chains; recombinant human protein purchased from R&D Systems
- load on MIA-injected hindlimb (pain avoidance behavior) (Wistar rats): significant improvement
- cell population positive for MSC-related antigens (CD73, CD90, CD105, CD44) [1]: no change
- expression of proteoglycans (proteoglycans): promotes the expression of proteoglycans
- regenerated meniscus tissue (histology) (C57BL/6J mice; 42 ng/knee intra-articular on day 7, 10 days after resection, FIG. 7A): more uniform regenerated meniscus tissue, was induced
- staining property of safranin O (proteoglycans) (C57BL/6J mice; 10 days after resection, vs control and PDGF groups, FIG. 7A): enhanced
- regenerated meniscus tissue (histology) (C57BL/6J mice; 21 days after resection (day 14 after administration), FIG. 7B): uniform regeneration of cartilage-like tissue was observed
- expression of type II collagen (C57BL/6J mice; 21 days after resection, FIG. 7B): Uniform expression
- regenerated meniscus tissue (histology) (C57BL/6J mice; 56 days after resection (day 49 after administration), FIG. 7C): formation of bone marrow-like tissue
- regenerated meniscus tissue (histology) (C57BL/6J mice; 84 days after resection (day 77 after administration), FIG. 7D): regenerated tissue image very close to that of a normal meniscus
- meniscus regeneration process, modified Pauli's score (C57BL/6J mice; day 10, 21, 56 and 84 after meniscectomy, FIG. 7E): significantly accelerated
- vascular invasion in the regenerated region (C57BL/6J mice; intra-articular on day 7, 10 days after resection, FIG. 7A): almost completely suppressed
- osteoinduction in regenerated tissues (C57BL/6J mice; regenerated tissues administered with activin): no osteoinduction was observed
